Measured values published in PubChem BioAssay (NCI).
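Following 48 hours of exposure in 96-well plates, responses at five concentrations were used to interpolate endpoints linearly. TGI: total growth inhibition.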

What was measured:
Assay in all cases: inhibition of tumour cell growth, NCI panel, 48 h
HOP-92 NSCLC = tested on: HOP-92 NSCLC
SW-620 colon = tested on: SW-620 colon
M14 melanoma = tested on: M14 melanoma
RPMI-8226 leukemia = tested on: RPMI-8226 leukemia
HCT-116 colon = tested on: HCT-116 colon
NCI-H23 lung = tested on: NCI-H23 lung
HS 578T breast = tested on: HS 578T breast
SK-MEL-28 melanoma = tested on: SK-MEL-28 melanoma
A498 renal = tested on: A498 renal
OVCAR-8 ovarian = tested on: OVCAR-8 ovarian
SR leukemia = tested on: SR leukemia
EKVX NSCLC = tested on: EKVX NSCLC
MALME-3M melanoma = tested on: MALME-3M melanoma
SN12C renal = tested on: SN12C renal
UACC-257 melanoma = tested on: UACC-257 melanoma
HL-60(TB) leukemia = tested on: HL-60(TB) leukemia
NCI/ADR-RES ovarian = tested on: NCI/ADR-RES ovarian
NCI-H460 lung = tested on: NCI-H460 lung
786-0 renal = tested on: 786-0 renal
SNB-75 CNS = tested on: SNB-75 CNS
NCI-H522 lung = tested on: NCI-H522 lung
PC-3 prostate = tested on: PC-3 prostate
MCF7 breast = tested on: MCF7 breast
T-47D breast = tested on: T-47D breast
A549 NSCLC = tested on: A549 NSCLC
SK-MEL-5 melanoma = tested on: SK-MEL-5 melanoma
MOLT-4 leukemia = tested on: MOLT-4 leukemia
HCT-15 colon = tested on: HCT-15 colon
U251 CNS = tested on: U251 CNS
OVCAR-4 ovarian = tested on: OVCAR-4 ovarian
RXF 393 renal = tested on: RXF 393 renal
TK-10 renal = tested on: TK-10 renal
SNB-19 CNS = tested on: SNB-19 CNS
HT29 colon = tested on: HT29 colon
SF-539 CNS = tested on: SF-539 CNS
COLO 205 colon = tested on: COLO 205 colon
DU-145 prostate = tested on: DU-145 prostate
HCC-2998 colon = tested on: HCC-2998 colon
ACHN renal = tested on: ACHN renal
BT-549 breast = tested on: BT-549 breast
SK-MEL-2 melanoma = tested on: SK-MEL-2 melanoma
UO-31 renal = tested on: UO-31 renal
MDA-N = tested on: MDA-N
SF-268 CNS = tested on: SF-268 CNS
MDA-MB-435 = tested on: MDA-MB-435
KM12 colon = tested on: KM12 colon
CAKI-1 renal = tested on: CAKI-1 renal
HOP-62 NSCLC = tested on: HOP-62 NSCLC
MDA-MB-231 breast = tested on: MDA-MB-231 breast
CCRF-CEM leukemia = tested on: CCRF-CEM leukemia
OVCAR-5 ovarian = tested on: OVCAR-5 ovarian
NCI-H226 lung = tested on: NCI-H226 lung
IGROV1 ovarian = tested on: IGROV1 ovarian
LOX IMVI melanoma = tested on: LOX IMVI melanoma
OVCAR-3 ovarian = tested on: OVCAR-3 ovarian

Structure (SMILES): CN(C)c1ccc(/C=N\NC(=O)Nc2cccc3ccccc23)cc1
- TGI (HOP-92 NSCLC): 59.5 µM
- TGI (SW-620 colon): > 100 µM
- TGI (M14 melanoma): > 100 µM
- TGI (RPMI-8226 leukemia): > 100 µM
- TGI (HCT-116 colon): 65.2 µM
- TGI (NCI-H23 lung): 76 µM
- TGI (HS 578T breast): 23.1 µM
- TGI (SK-MEL-28 melanoma): > 100 µM
- TGI (A498 renal): 64.8 µM
- TGI (OVCAR-8 ovarian): > 100 µM
- TGI (SR leukemia): > 100 µM
- TGI (EKVX NSCLC): > 100 µM
- TGI (MALME-3M melanoma): 27.4 µM
- TGI (SN12C renal): 31.4 µM
- TGI (UACC-257 melanoma): 34.6 µM
- TGI (HL-60(TB) leukemia): 7.03 µM
- TGI (NCI/ADR-RES ovarian): 78.8 µM
- TGI (NCI-H460 lung): 31.8 µM
- TGI (786-0 renal): 51.5 µM
- TGI (SNB-75 CNS): 32.3 µM
- TGI (NCI-H522 lung): 14 µM
- TGI (PC-3 prostate): 35.5 µM
- TGI (MCF7 breast): 33 µM
- TGI (T-47D breast): 19.8 µM
- TGI (A549 NSCLC): > 100 µM
- TGI (SK-MEL-5 melanoma): 18.6 µM
- TGI (MOLT-4 leukemia): > 100 µM
- TGI (HCT-15 colon): 7.23 µM
- TGI (U251 CNS): 39.5 µM
- TGI (OVCAR-4 ovarian): 40.4 µM
- TGI (RXF 393 renal): > 100 µM
- TGI (TK-10 renal): 36.7 µM
- TGI (SNB-19 CNS): 7.5 µM
- TGI (HT29 colon): > 100 µM
- TGI (SF-539 CNS): 21.5 µM
- TGI (COLO 205 colon): > 100 µM
- TGI (DU-145 prostate): 30.9 µM
- TGI (HCC-2998 colon): > 100 µM
- TGI (ACHN renal): 38.5 µM
- TGI (BT-549 breast): 72.4 µM
- TGI (SK-MEL-2 melanoma): 35.7 µM
- TGI (UO-31 renal): 51.6 µM
- TGI (MDA-N): 12 µM
- TGI (SF-268 CNS): 71.8 µM
- TGI (MDA-MB-435): 48.3 µM
- TGI (KM12 colon): > 100 µM
- TGI (CAKI-1 renal): 27.9 µM
- TGI (HOP-62 NSCLC): 33.1 µM
- TGI (MDA-MB-231 breast): 32.9 µM
- TGI (CCRF-CEM leukemia): > 100 µM
- TGI (OVCAR-5 ovarian): > 100 µM
- TGI (NCI-H226 lung): 9.06 µM
- TGI (IGROV1 ovarian): 36.6 µM
- TGI (LOX IMVI melanoma): 22.1 µM

Structure (SMILES): CCOP(=O)(COCCn1ncc(=O)[nH]c1=O)OCC
- TGI (HOP-92 NSCLC): > 100 µM
- TGI (SW-620 colon): > 100 µM
- TGI (M14 melanoma): > 100 µM
- TGI (RPMI-8226 leukemia): > 100 µM
- TGI (NCI-H23 lung): > 100 µM
- TGI (HS 578T breast): > 100 µM
- TGI (SK-MEL-28 melanoma): > 100 µM
- TGI (A498 renal): > 100 µM
- TGI (OVCAR-8 ovarian): > 100 µM
- TGI (SR leukemia): > 100 µM
- TGI (EKVX NSCLC): > 100 µM
- TGI (MALME-3M melanoma): > 100 µM
- TGI (SN12C renal): > 100 µM
- TGI (HL-60(TB) leukemia): > 100 µM
- TGI (NCI/ADR-RES ovarian): > 100 µM
- TGI (OVCAR-3 ovarian): > 100 µM
- TGI (NCI-H460 lung): > 100 µM
- TGI (SNB-75 CNS): > 100 µM
- TGI (NCI-H522 lung): > 100 µM
- TGI (PC-3 prostate): > 100 µM
- TGI (MCF7 breast): > 100 µM
- TGI (T-47D breast): > 100 µM
- TGI (A549 NSCLC): > 100 µM
- TGI (SK-MEL-5 melanoma): > 100 µM
- TGI (MOLT-4 leukemia): > 100 µM
- TGI (HCT-15 colon): > 100 µM
- TGI (U251 CNS): > 100 µM
- TGI (RXF 393 renal): > 100 µM
- TGI (TK-10 renal): > 100 µM
- TGI (SNB-19 CNS): > 100 µM
- TGI (HT29 colon): > 100 µM
- TGI (SF-539 CNS): > 100 µM
- TGI (COLO 205 colon): > 100 µM
- TGI (DU-145 prostate): > 100 µM
- TGI (HCC-2998 colon): > 100 µM
- TGI (ACHN renal): > 100 µM
- TGI (BT-549 breast): > 100 µM
- TGI (SK-MEL-2 melanoma): > 100 µM
- TGI (UO-31 renal): > 100 µM
- TGI (MDA-N): > 100 µM
- TGI (SF-268 CNS): > 100 µM
- TGI (MDA-MB-435): > 100 µM
- TGI (KM12 colon): > 100 µM
- TGI (CAKI-1 renal): > 100 µM
- TGI (HOP-62 NSCLC): > 100 µM
- TGI (MDA-MB-231 breast): > 100 µM
- TGI (CCRF-CEM leukemia): > 100 µM
- TGI (OVCAR-5 ovarian): > 100 µM
- TGI (NCI-H226 lung): > 100 µM
- TGI (IGROV1 ovarian): > 100 µM
- TGI (LOX IMVI melanoma): > 100 µM
